For series [1], the system named is contact hypersensitivity response. To be noted: in vivo; cited from earlier work.
Series [2] addresses T1, α4β1 integrin (Jurkat T-cell adhesion to IL-1 stimulated endothelial cell monolayers) (Homo sapiens, UniProt P05556+P13612).
T1 construct: a T-cell line, Jurkat, known to express the α4β1 integrin; host or cells: Jurkat T-cell line
Nature of the series: Jurkat-Endothelial Cell Adhesion Assay (Jurkat EC). The class given is cell-based. To be noted: Jurkat cells on IL-1 stimulated HUVEC monolayers. A digest of the protocol:
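BCECF-loaded Jurkat cells (5×10^5) mixed with compound (generally 100, 20, 5 and 1.25 μM) and added to HUVEC monolayers prestimulated 4 hr with 0.1 ng/ml IL-1, in DMEM-HSA. After 5 min on ice and 20 min at 37° C, washed; fluorescence gives % adhesion relative to no-compound control set at 100%.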

The subject of series [3] is VLA-4 integrin-dependent eosinophil infiltration. Kind of series: Dextran pleurisy model (dextran-induced pleural leukocyte infiltration). The series is classed as in vivo, C57BL/6 mice. To be noted: 4 h post-induction; for change in vivo at 25 mg/kg / change in vivo at 50 mg/kg: Mus musculus; for change in vivo at 25 mg/kg: 25 mg/kg × 2 iv (0h,+1h relative to dextran). As for the experimental part: C57BL/6 mice (Jackson, Bar Harbor, Me.;), 6-8 weeks old, weighing 20-25 g were used throughout. All mice were acclimated for at least 7-14 days after arrival and maintained under controlled temperature (20-22° C.) and a 12 hr daily light cycle (6.00 A.M.-6.00 P.M.). Mice were housed in laminar flow racks and checked biweekly for viral infections (mouse hepatitis virus, minute virus of mice, rodent orphan parvovirus, Sendai) with kits obtained from Oreganon Teknika (Durham, N.C.) using established enzyme-linked immunoabsorbent assays. Mice testing positive for any of the above were omitted from the study. All mice were fed standard laboratory chow (Upjohn Lab Rodent Irradiated Mouse Chow, #5011-3, PMI Feeds, St. Louis, Mo.) and acidified drinking water (pH 5.0) ad libitum.
Intrapleural injections were made using a 27 G needle cut to 3-4 mm and blunted by filing. Injections were made by inserting the needle between the mid-intercostal ribs on the right side of the thoracic cavity.
Dextran (MW 5-40×10^6, St Louis, Mo.) was injected as a 10% solution in saline in a volume of 100 μl/mouse. Care was taken to avoid bleeding at the site of injection at which the intercostal muscles were cut to facilitate smooth insertion of the needle.
Pleural leukocytes were collected as follows: 4 h post-induction, pleural inflammatory exudate was removed by washing with 2×1.0 ml Ca^++/Mg^++ free HBSS (Gibco, Grand Island, N.Y.) containing 45 mg EDTA/100 ml HBSS, 4° C. Total leukocyte counts were made by hemocytometer following erythrocyte lysis in 2% acetic acid in PBS buffer; exudate leukocyte pellets were resuspended in serum for cytospin preparations and stained (Diff Quik, Baxter Healthcare, McGraw Park, Ill.) for differential leukocyte counts (neutrophils, eosinophils, and mononuclear leukocytes).
The pleural cavities of mice receiving either no intrapleural injection, or saline were washed and the cells counted in the same way to estimate baseline or saline-induced pleural leukocyte counts respectively.
All drugs were dissolved in PBS and the pH adjusted to 7.5 with NaOH. Each drug was administered intravenously through the retroorbital sinus at hourly intervals (0-3 h) starting from time “0” as indicated.
The following camphoric acid analogues were tested for their inhibitory effects on dextran-induced leukocyte infiltration: Examples 4, 12, 54, 63, 166, 93, 180, 181, 183, 184, 217, Camphoric acid or PBS (saline) was administered iv. as a control. Inhibition of eosinophil infiltration, which was suppressed by anti-alpha-4 Mab (PS/2, 50%), was used as a readout of VLA-4 antagonist activity of the camphoric acids tested. Data for neutrophils are also reported.

For series [4], the target named is T2, α4β1 integrin (Jurkat cell adhesion to immobilized CS-1 derived peptide CLHPGEILDVPST) (Homo sapiens, UniProt P05556+P13612).
T2 construct: 100 μl of Jurkat cells (2.5×10^6 cells/ml) in DMEM plus BSA; endogenous in cells; host or cells: Jurkat T-cell line
Kind of series: Jurkat-CS-1 Assay. The class given is cell-based. To be noted: Jurkat cells on CS-1 peptide coated plates. In a few lines:
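CS-1 peptide was SPDP-crosslinked onto HSA-coated plates and blocked with BSA. Jurkat cells (2.5×10^6 cells/ml) in DMEM/BSA were mixed with compound, generally at 100, 20, 5 and 1.25 μM, and allowed to adhere for 1 hr at 37° C. Bound cells were fixed, stained with toluidine blue and quantified by OD590.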

Where [5] appears, read: Eosinophil, read-out: %Δ Pleural Leukocytes, Eos.
Setting [6] is: Eosinophil, 50 mg/kg × 2 iv (0h,+1h relative to dextran), read-out: %Δ Pleural Leukocytes, Eos.
Where [7] appears, read: Neutrophil, read-out: %Δ Pleural Leukocytes, Neutro.
[8] abbreviates: Neutrophil, 50 mg/kg × 2 iv (0h,+1h relative to dextran), read-out: %Δ Pleural Leukocytes, Neutro.
[9] abbreviates: 50 mg/kg × 2 iv (0h,+1h relative to dextran).
Setting [10] is: 50 mg/kg × 4 iv (0h,+1h,+2h,+3h relative to dextran).

pIC50: −log10 of the molar value. Where two headings read alike, the source gives them in different places.

The term pIC50 denotes the negative decadic logarithm of the IC50, by convention in mol/L. Lower therefore signals a large IC50. As usually defined, the melting point is the temperature of the solid-liquid transition.

T2 sequence (P13612 34-1032): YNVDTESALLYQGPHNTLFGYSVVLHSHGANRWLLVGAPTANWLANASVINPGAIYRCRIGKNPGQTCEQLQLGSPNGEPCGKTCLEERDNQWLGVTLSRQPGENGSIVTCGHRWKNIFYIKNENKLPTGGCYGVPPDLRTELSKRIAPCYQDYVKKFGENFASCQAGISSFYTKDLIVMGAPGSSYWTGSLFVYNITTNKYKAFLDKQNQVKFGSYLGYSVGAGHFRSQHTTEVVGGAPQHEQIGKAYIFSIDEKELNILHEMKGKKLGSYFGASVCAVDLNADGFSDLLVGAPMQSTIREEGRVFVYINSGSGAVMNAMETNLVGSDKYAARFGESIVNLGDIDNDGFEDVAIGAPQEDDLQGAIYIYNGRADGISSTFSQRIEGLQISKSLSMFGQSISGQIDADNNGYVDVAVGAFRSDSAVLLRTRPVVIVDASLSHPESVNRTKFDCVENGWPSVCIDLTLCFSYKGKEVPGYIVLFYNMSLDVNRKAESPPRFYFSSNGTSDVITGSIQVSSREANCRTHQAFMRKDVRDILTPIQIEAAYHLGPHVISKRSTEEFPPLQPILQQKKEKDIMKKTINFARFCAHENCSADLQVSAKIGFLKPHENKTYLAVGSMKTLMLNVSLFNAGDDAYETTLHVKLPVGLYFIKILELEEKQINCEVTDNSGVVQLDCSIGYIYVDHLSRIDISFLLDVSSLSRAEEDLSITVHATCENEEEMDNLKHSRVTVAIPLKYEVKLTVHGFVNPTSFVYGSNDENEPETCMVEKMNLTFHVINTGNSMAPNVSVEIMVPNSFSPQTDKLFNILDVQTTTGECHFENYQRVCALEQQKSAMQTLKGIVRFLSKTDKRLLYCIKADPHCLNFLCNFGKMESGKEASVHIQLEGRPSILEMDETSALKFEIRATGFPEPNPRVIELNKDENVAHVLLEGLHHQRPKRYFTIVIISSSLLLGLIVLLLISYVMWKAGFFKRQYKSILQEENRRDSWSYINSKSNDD
T2 sequence (P05556 21-798): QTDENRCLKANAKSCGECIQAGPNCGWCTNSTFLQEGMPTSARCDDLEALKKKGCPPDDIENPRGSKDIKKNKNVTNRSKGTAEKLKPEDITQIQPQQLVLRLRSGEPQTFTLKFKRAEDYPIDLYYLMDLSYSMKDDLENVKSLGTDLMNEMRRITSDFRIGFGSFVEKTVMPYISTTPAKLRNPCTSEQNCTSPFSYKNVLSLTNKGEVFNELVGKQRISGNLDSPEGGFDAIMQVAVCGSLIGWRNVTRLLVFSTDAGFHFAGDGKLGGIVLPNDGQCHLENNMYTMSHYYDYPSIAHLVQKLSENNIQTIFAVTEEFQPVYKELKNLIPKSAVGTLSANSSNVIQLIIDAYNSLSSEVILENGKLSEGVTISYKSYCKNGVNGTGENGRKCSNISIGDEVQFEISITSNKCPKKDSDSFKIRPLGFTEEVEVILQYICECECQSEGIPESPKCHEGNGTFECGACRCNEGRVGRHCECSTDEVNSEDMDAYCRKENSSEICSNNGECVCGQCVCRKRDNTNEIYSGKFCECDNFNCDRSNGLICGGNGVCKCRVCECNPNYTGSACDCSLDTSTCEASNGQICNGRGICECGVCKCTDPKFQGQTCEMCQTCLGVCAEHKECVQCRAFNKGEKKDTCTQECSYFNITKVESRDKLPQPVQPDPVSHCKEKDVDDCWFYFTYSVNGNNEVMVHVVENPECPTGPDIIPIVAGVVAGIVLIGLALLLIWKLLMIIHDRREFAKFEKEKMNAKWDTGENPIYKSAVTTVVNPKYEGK
T1 sequence (P13612 34-1032): as the sequence (P13612 34-1032) above
T1 sequence (P05556 21-798): as the sequence (P05556 21-798) above

With EILDV, the Contact hypersensitivity response result in series [1] is listed as “blocked”.
Turning to `CC1(C)[C@@H](C(=O)N[C@@H](Cc2ccc(OCc3c(Cl)cccc3Cl)c([N+](=O)[O-])c2)C(=O)O)CC[C@@]1(C)C(=O)O` [Example 63], the melting point was in the range of 92 to 94 °C. This compound also gave a pIC50 in series [2] of 5.30 to 6.10. In series [3] (setting [5]), the change in vivo at 25 mg/kg was -50 to -10%. Besides, the change in vivo at 50 mg/kg in series [3] (setting [6]) was -50 to -10%. Moreover, in series [3] (setting [7]), the change in vivo at 25 mg/kg is -50 to -10%. In addition, the change in vivo at 50 mg/kg in series [3] (setting [8]) is -50 to -10%. Besides, in series [4], the pIC50 was ≥ 7.10.
Regarding `CC1(C)[C@@H](C(=O)N[C@@H](Cc2ccc(NC(=O)c3c(Cl)cccc3Cl)cc2)C(=O)O)CC[C@@]1(C)C(=O)NOCc1ccccc1` [Example 217], the pIC50 was ≥ 6.10 in series [2] and ≥ 7.10 in series [4]. Further, the values for the change in vivo at 50 mg/kg in series [3] (setting [6]) and in series [3] (setting [8]) were -50 to -10% and -10 to 0%, respectively.
Turning to `CC1(C)[C@@H](C(=O)N[C@@H](Cc2ccc(NC(=O)c3c(Cl)cccc3Cl)cc2)C(=O)O)CC[C@@]1(C)C(=O)NCC(=O)O` [Example 181, (1S-cis)-N-[[3-[[(Carboxymethyl)amino]carbonyl]-2,2,3-trimethylcyclopentyl]carbonyl]-4-[(2,6-dichlorobenzoyl)amino]-L-phenylalanine], the pIC50 is ≥ 6.10 in series [2] and ≥ 7.10 in series [4]. The change in vivo at 25 mg/kg in series [3] (setting [5]) and in series [3] (setting [7]) was -50 to -10% each time. Further, the change in vivo at 50 mg/kg in series [3] (setting [6]) and in series [3] (setting [8]) was -50 to -10% each time.
With `CC1(C)[C@@H](C(=O)N[C@@H](Cc2ccc(NC(=O)c3c(Cl)cccc3Cl)cc2)C(=O)O)CC[C@@]1(C)C(=O)O` [Example 54, (1S-cis)-N-[(3-Carboxy-2,2,3-trimethylcyclopentyl)carbonyl]-4-[(2,6-dichlorobenzoyl)amino]-L-phenylalanine], the melting point was in the range of 231 to 233 °C. For the same compound, in series [2], the pIC50 is ≥ 6.10. Moreover, in series [3] (Eosinophil, 50 mg/kg × 4 iv (0h,+1h,+2h,+3h relative to dextran), read-out: %Δ Pleural Leukocytes, Eos), the change in vivo at 50 mg/kg was ≤ -50%. Also, the change in vivo at 50 mg/kg in series [3] (Neutrophil, 50 mg/kg × 4 iv (0h,+1h,+2h,+3h relative to dextran), read-out: %Δ Pleural Leukocytes, Neutro) is -50 to -10%. The negative logarithm of the IC50 (pIC50) in series [4] is ≥ 7.10.
For `CC1(C)[C@@H](C(=O)N[C@@H](Cc2ccc(OCc3c(Cl)cccc3Cl)cc2)C(=O)O)CC[C@@]1(C)C(=O)O` (relative stereo) [Example 12, (1S-cis)-N-[(3-Carboxy-2,2,3-trimethylcyclopentyl)carbonyl]-O-[(2,6-dichlorophenyl)methyl]-L-tyrosine], the negative-log IC50 (pIC50) is ≥ 6.10 in series [2] and ≥ 7.10 in series [4]. Also, the “%Δ Pleural Leukocytes, Eos” value in series [3] (setting [9]) and in series [3] (setting [10]) was “A (A≦−50)” throughout. Moreover, the “%Δ Pleural Leukocytes, Neutro” value in series [3] (setting [9]) and in series [3] (setting [10]) was “B (−50<B<−10)” throughout.
In the case of `CC1(C)[C@@H](C(=O)N[C@@H](Cc2cn(Cc3ccc(Cl)c(Cl)c3)cn2)C(=O)O)CC[C@@]1(C)C(=O)O` [Example 4, (1S-cis)-N-[(3-Carboxy-2,2,3-trimethylcyclopentyl)carbonyl]-1-[(3,4-dichlorophenyl)methyl]-L-histidine], the melting point is 148 to 149 °C (dec.). In series [2], this compound showed a pIC50 of 5.30 to 6.10. Also, the change in vivo at 50 mg/kg in series [3] (setting [6]) is ≤ -50%. In addition, the change in vivo at 50 mg/kg in series [3] (setting [8]) was -50 to -10%. The pIC50 in series [4] is 6.30 to 7.10.
Turning to `CC1(C)[C@@H](C(=O)N[C@@H](Cc2ccc(NC(=O)c3c(Cl)cc(Cl)cc3Cl)cc2)C(=O)O)CC[C@@]1(C)C(=O)O` [Example 93], the pIC50 in series [2] was ≥ 6.10; in series [4], ≥ 7.10. In addition, the change in vivo at 50 mg/kg is -50 to -10% in series [3] (setting [6]) and -10 to 0% in series [3] (setting [8]).
On to `CC1(C)[C@@H](C(=O)N[C@@H](Cc2ccc(NC(=O)c3c(Cl)cccc3Cl)cc2)C(=O)O)CC[C@@]1(C)C#N` [Example 184, (1S-cis)-N-[[3-Cyano-2,2,3-trimethylcyclopentyl]carbonyl]-4-[(2,6-dichlorobenzoyl)amino]-L-phenylalanine], for which the pIC50 in series [2] was ≥ 6.10; in series [4] it was ≥ 7.10. The change in vivo at 25 mg/kg in series [3] (setting [5]) and in series [3] (setting [7]) was -50 to -10% each time. Besides, the figures for the change in vivo at 50 mg/kg in series [3] (setting [6]) and in series [3] (setting [8]) were ≤ -50% and -50 to -10%, respectively.
Turning to `CC1(C)[C@@H](C(=O)N[C@@H](Cc2ccc(NC(=O)c3c(Cl)cccc3Cl)cc2)C(=O)O)CC[C@@]1(C)C(N)=O` [Example 166], the melting point lay within 196 to 198 °C. In addition, the pIC50 in series [2] was ≥ 6.10. The change in vivo at 50 mg/kg in series [3] (setting [6]) was -50 to -10%. Further, in series [3] (setting [8]), the change in vivo at 50 mg/kg was -10 to 0%. Besides, the pIC50 in series [4] was ≥ 7.10.
Compound `CC1(C)[C@@H](C(=O)N[C@@H](Cc2ccc(NC(=O)c3c(Cl)cccc3Cl)cc2)C(=O)O)CC[C@@]1(C)C(=O)NCC(N)=O` [Example 180, (1S-cis)-N-[[3-[[(2-Amino-2-oxoethyl)amino]-carbonyl]-2,2,3-trimethylcyclopentyl]carbonyl]-4-[(2,6-dichlorobenzoyl)amino]-L-phenylalanine] displayed a melting point of 203 to 205 °C. Further, the pIC50 in series [2] is ≥ 6.10. The change in vivo at 25 mg/kg in series [3] (setting [5]) is -50 to -10%. Further, in series [3] (setting [6]), the change in vivo at 50 mg/kg is -50 to -10%. Further, the change in vivo at 25 mg/kg in series [3] (setting [7]) was -50 to -10%. Besides, the change in vivo at 50 mg/kg in series [3] (setting [8]) is -50 to -10%. Also, the pIC50 in series [4] is ≥ 7.10.

The values are drawn from patent US6482849B1, “Inhibitors of α4β1 mediated cell adhesion” (Tanabe Seiyaku Co., Ltd., priority 1997, dated 2002).
